# Data as given in US10449223B2, “Use of dehydroeburicoic acid from Antrodia camphorata in the treatment or prevention of diabetes and hyperlipidemia” (priority 2016, dated 2019).
# Key:
# [1] = system: STZ-induced diabetic mice; assay: Tissue weight, body weight and food intake in STZ-induced diabetic mice; assay type: in vivo, C57BL/6J mice; settings: 28 days
# [2] = system: STZ-induced diabetic mice; assay: Histology of epididymal WAT and liver tissue in STZ-induced diabetic mice; assay type: in vivo, C57BL/6J mice; settings: 28 days
# Source text: Parts of EWAT and liver tissue specimens were investigated as previously described.^31,32 Microscopic images were taken using a microscope (Olympus BX51, BX51, Olympus, Tokyo, Japan).
# SREBP2 = assay: Semiquantitative RT-PCR, liver tissue: SREBP2 mRNA; assay type: in vivo, C57BL/6J mice; settings: STZ-induced diabetic mice; TT oral (10, 20, 40 mg/kg/day groups, dose not given)
# Procedure: (§1) Total RNA from liver tissue was isolated with a Trizol Reagent (Molecular Research Center, Inc., Cincinnati, Ohio) according to the manufacturer's directions. The integrity of the extracted total RNA was examined by 2% agarose gel electrophoresis, and the RNA concentration was determined by the ultraviolet (UV) light absorbency at 260 nm and 280 nm (Spectrophotometer U-2800A, Hitachi). Total RNA (1 μg) was reverse transcribed to cDNA in a reaction mixture containing buffer, and 5 μL Moloney murine leukemia virus reverse transcriptase (Epicentre, Madison, Wis., USA). The polymerase chain reaction (PCR) was performed in a final 25 μL containing 1 U Blend Taq-Plus (TOYOBO, Japan), 1 μL of the RT first-strand cDNA product, 10 μM of each forward (F) and reverse (R) primer, 75 mM Tris-HCl (pH 8.3) containing 1 mg/L Tween 20, 2.5 mM dNTP, and 2 mM MgCl2. The products were run on 2% agarose gels and stained with ethidium bromide.
# DGAT2 = assay: Semiquantitative RT-PCR, liver tissue: DGAT2 mRNA; assay type: in vivo, C57BL/6J mice; settings: STZ-induced diabetic mice, 28 days, relative to CON group (so in the source)
# Procedure: as §1
# PPARα [3] = assay: Western blotting: PPARα in liver of mice; settings: STZ-induced diabetic mice, 28 days
# Procedure: (§6) The study protocol was performed as previously described.^28 Diabetes was induced by intraperitoneal injection of streptozotocin (Sigma Chemical, St. Louis, Mo., USA) for 5 consecutive days. The dosage of STZ was 55 mg/kg (dissolved in 0.05 M cold sodium citrate buffer, pH 4.5). The normal control mice received only citrate buffer of the same volume.
# (§7) During the experiment, all mice were fasted overnight, and blood was collected from the retro-orbital sinus. After dosing for 4 weeks, food was removed from the mice at night, and on the next day, the mice after 12 h of fasting were sacrificed. All of the individual tissues were collected and weighed, and parts of tissues were instantly frozen at −80° C. for later target gene analysis.
# (§8) PPARα, PPARγ, and FAS proteins were performed by the liver and white adipose tissue of mice. Skeletal muscle from mice was subjected to GLUT4 expression level analysis, and the total membrane fractions were collected with buffer and determined using a described procedure. The protein contents of GLUT4, phospho-AMPK, and total AMPK were detected by Western blotting and determined as described.
# PEPCK = assay: Semiquantitative RT-PCR, liver tissue: PEPCK mRNA; assay type: in vivo, C57BL/6J mice; settings: STZ-induced diabetic mice, 28 days, relative to CON group (so in the source)
# Procedure: as §1
# Akt = assay: phospho-Akt (Ser473)/total Akt in C2C12 myotube cells (Western blot); assay type: cell-based; settings: 30 min
# Procedure: (§2) C2C12 skeletal myoblasts (ATCC, CRL-1772) were maintained in growth media consisting of Dulbecco's modified Eagle's medium (DMEM) (Gibco BRL) supplemented with 10% fetal bovine serum (FBS) (Hyclone) and 100 U/mL penicillin/100 μg/mL streptomycin (Gibco BRL) and split 1:4 using 0.05% trypsin when 80% confluent. Myoblasts were diluted and placed in a 9 cm dish. Cells were cultured to achieve 80-90% confluency, and growth medium was changed as 2% FBS/DMEM every 24 h for 5-7 days.
# (§3) Determination of GLUT4 and phospho-Akt (Ser^473)/Total Akt Proteins in Vitro: Differentiated C2C12 cells were serum starved in DMEM/BSA (2 h at 37° C.) prior to incubation either with test compounds (TT at 1, 5, 10, and 25 μg/mL) or with vehicle (DMSO containing saline, final concentration of DMSO=0.2%) for 30 min or with 100 nM insulin for 25 min.
# (§4) Following treatment, cells were washed three times with ice-cold PBS and separated into two portions. A portion of the cells was subsequently lysed in RIPA buffer (50 mM Tris-HCl, pH 8, 150 mM NaCl, 1% NP-40, 0.5% sodium deoxycholate, 0.1% SDS) supplemented with complete protease inhibitor cocktail (Roche) and phosphatase inhibitors and then centrifuged at 20000 g for […].
# Supernatant protein was collected and stored at −20° C. Another portion of cells was homogenized with buffer (250 mmol/L sucrose, 50 mmol/L Tris, and 0.2 mmol/L edetic acid, pH 7.4) at 4° C., as previously described. The homogenates were centrifuged at 9000 g for 10 min (4° C.). The pellet was suspended with 0.5 mL of homogenization buffer and then centrifuged, repeated three times. The three supernatants were collected, mixed, and centrifuged at 190000 g for 60 min (4° C.). […]
# (§5) Protein concentration was determined via BCA assay (Pierce). Equal amounts of protein were then diluted four times in SDS sample buffer and subjected to SDS-PAGE and were detected by Western blotting with antibodies specific for Akt, phosph-Akt Ser^473, and GLUT4. The density blotting was analyzed using Alpha Easy FCsoftware (Alpha Innotech Corp., Randburg, South Africa).
# CPT1a = assay: Semiquantitative RT-PCR, liver tissue: CPT1a mRNA; assay type: in vivo, C57BL/6J mice; settings: STZ-induced diabetic mice; TT oral (10, 20, 40 mg/kg/day groups, dose not given)
# Procedure: as §1
# FAS = assay: Western blotting: FAS in liver and adipose tissue of mice; settings: STZ-induced diabetic mice, 28 days
# Procedure: as §6, §7, §8
# PPARα [4] = assay: Semiquantitative RT-PCR, liver tissue: PPARα mRNA; assay type: in vivo, C57BL/6J mice; settings: STZ-induced diabetic mice, 28 days
# Procedure: as §1
# AMPK = assay: Western blotting: phospho-AMPK (Thr172)/total AMPK in skeletal muscle and liver of mice; settings: STZ-induced diabetic mice, 28 days
# Procedure: as §6, §7, §8
# GLUT4 [5] = assay: GLUT4 protein expression in C2C12 myotube cells (Western blot); assay type: cell-based; settings: 30 min
# Procedure: as §2, §3, §4
# Supernatant protein was collected and stored at −20° C. Another portion of cells was homogenized with buffer (250 mmol/L sucrose, 50 mmol/L Tris, and 0.2 mmol/L edetic acid, pH 7.4) at 4° C., as previously described. The homogenates were centrifuged at 9000 g for 10 min (4° C.). The pellet was suspended with 0.5 mL of homogenization buffer and then centrifuged, repeated three times. The three supernatants were collected, mixed, and centrifuged at 190000 g for 60 min (4° C.). The pellet was resuspended with 0.2 mL of homogenization buffer, stored at −20° C., and performed within membrane.
# as §5
# GLUT4 [6] = assay: Western blotting: membrane GLUT4 in skeletal muscle of mice; settings: STZ-induced diabetic mice, 28 days
# Procedure: as §6, §7, §8
# SREBP1c = assay: Semiquantitative RT-PCR, liver tissue: SREBP1c mRNA; assay type: in vivo, C57BL/6J mice; settings: STZ-induced diabetic mice, 28 days, relative to CON group (so in the source)
# Procedure: as §1
# G6 Pase = assay: Semiquantitative RT-PCR, liver tissue: G6 Pase mRNA; assay type: in vivo, C57BL/6J mice; settings: STZ-induced diabetic mice, 28 days, relative to CON group (so in the source)
# Procedure: as §1
# PPARγ = assay: Western blotting: PPARγ in liver and adipose tissue of mice; settings: STZ-induced diabetic mice, 28 days
# Procedure: as §6, §7, §8
structure (smiles),measurement,setting,value
"CC(C)OC(=O)C(C)(C)Oc1ccc(C(=O)c2ccc(Cl)cc2)cc1 [Feno, fenofibrate, reference compound]",Tissue weight: BAT,[1]; Feno 250 mg/kg/day oral,0.319 ± 0.030 wt %
same,Tissue weight: EWAT,[1]; Feno 250 mg/kg/day oral,0.743 ± 0.059 wt %
same,Tissue weight: MWAT,[1]; Feno 250 mg/kg/day oral,0.795 ± 0.070 wt %
same,Tissue weight: RWAT,[1]; Feno 250 mg/kg/day oral,0.154 ± 0.016 wt %
same,Tissue weight: Visceral fat,[1]; Feno 250 mg/kg/day oral,0.889 ± 0.075 wt %
same,average area of adipocytes in epididymal WAT,[2]; Feno 250 mg/kg/day oral,5373.8±194.6 μm^2
"C=C(CC[C@@H](C(=O)O)[C@H]1CC[C@@]2(C)C3=CC[C@H]4C(C)(C)[C@@H](O)CC[C@]4(C)C3=CC[C@]12C)C(C)C [TT, dehydroeburicoic acid]",SREBP2 mRNA levels in liver,SREBP2,decreased
same,mRNA levels of DGAT2 in liver,DGAT2; TT 10 mg/kg/day oral,decreased
same,mRNA levels of DGAT2 in liver,DGAT2; TT 20 mg/kg/day oral,decreased
same,mRNA levels of DGAT2 in liver,DGAT2; TT 40 mg/kg/day oral,decreased
same,Tissue weight: BAT,[1]; TT 10 mg/kg/day oral,0.296 ± 0.012 wt %
same,Tissue weight: EWAT,[1]; TT 10 mg/kg/day oral,0.778 ± 0.063 wt %
same,Tissue weight: MWAT,[1]; TT 10 mg/kg/day oral,0.562 ± 0.114 wt %
same,Tissue weight: RWAT,[1]; TT 10 mg/kg/day oral,0.122 ± 0.029 wt %
same,Tissue weight: Visceral fat,[1]; TT 10 mg/kg/day oral,0.900 ± 0.082 wt %
same,Tissue weight: BAT,[1]; TT 20 mg/kg/day oral,0.323 ± 0.026 wt %
same,Tissue weight: EWAT,[1]; TT 20 mg/kg/day oral,0.783 ± 0.087 wt %
same,Tissue weight: MWAT,[1]; TT 20 mg/kg/day oral,0.709 ± 0.111 wt %
same,Tissue weight: RWAT,[1]; TT 20 mg/kg/day oral,0.161 ± 0.031 wt %
same,Tissue weight: Visceral fat,[1]; TT 20 mg/kg/day oral,0.944 ± 0.115 wt %
same,Tissue weight: EWAT,[1]; TT 40 mg/kg/day oral,0.715 ± 0.068 wt %
same,Tissue weight: MWAT,[1]; TT 40 mg/kg/day oral,0.720 ± 0.114 wt %
same,Tissue weight: RWAT,[1]; TT 40 mg/kg/day oral,0.119 ± 0.014 wt %
same,Tissue weight: Visceral fat,[1]; TT 40 mg/kg/day oral,0.834 ± 0.082 wt %
same,expression levels of PPARα in the liver,PPARα [3]; TT 10 mg/kg/day oral,increased
same,expression levels of PPARα in the liver,PPARα [3]; TT 20 mg/kg/day oral,increased
same,expression levels of PPARα in the liver,PPARα [3]; TT 40 mg/kg/day oral,increased
same,mRNA levels of PEPCK in liver,PEPCK; TT 10 mg/kg/day oral,decreased
same,mRNA levels of PEPCK in liver,PEPCK; TT 20 mg/kg/day oral,decreased
same,mRNA levels of PEPCK in liver,PEPCK; TT 40 mg/kg/day oral,decreased
same,levels of phospho-Akt (Ser473)/total Akt proteins vs CON group,Akt; TT 10 μg/mL,higher
same,levels of phospho-Akt (Ser473)/total Akt proteins vs CON group,Akt; TT 25 μg/mL,higher
same,CPT1a mRNA levels in liver,CPT1a,enhanced
same,expression levels of FAS in adipose tissue,FAS; TT 10 mg/kg/day oral,decreased
same,expression levels of FAS in the liver,FAS; TT 10 mg/kg/day oral,decreased
same,expression levels of FAS in adipose tissue,FAS; TT 20 mg/kg/day oral,decreased
same,expression levels of FAS in the liver,FAS; TT 20 mg/kg/day oral,decreased
same,expression levels of FAS in adipose tissue,FAS; TT 40 mg/kg/day oral,decreased
same,expression levels of FAS in the liver,FAS; TT 40 mg/kg/day oral,decreased
same,mRNA level of PPARα in liver,PPARα [4]; TT 10 mg/kg/day oral,increased
same,mRNA level of PPARα in liver,PPARα [4]; TT 20 mg/kg/day oral,increased
same,mRNA level of PPARα in liver,PPARα [4]; TT 40 mg/kg/day oral,increased
same,expression levels of phospho-AMPK/total AMPK in skeletal muscle,AMPK; TT 10 mg/kg/day oral,increased
same,muscular expression levels of phospho-AMPK/total AMPK compared with the STZ group (second sentence),AMPK; TT 10 mg/kg/day oral,increased
same,expression levels of phospho-AMPK/total AMPK in skeletal muscle,AMPK; TT 20 mg/kg/day oral,increased
same,muscular expression levels of phospho-AMPK/total AMPK compared with the STZ group (second sentence),AMPK; TT 20 mg/kg/day oral,increased
same,expression levels of phospho-AMPK/total AMPK in skeletal muscle,AMPK; TT 40 mg/kg/day oral,increased
same,muscular expression levels of phospho-AMPK/total AMPK compared with the STZ group (second sentence),AMPK; TT 40 mg/kg/day oral,increased
same,protein expressions of GLUT4 vs CON group,GLUT4 [5]; TT 1 μg/mL,higher
same,protein expressions of GLUT4 vs CON group,GLUT4 [5]; TT 5 μg/mL,higher
same,protein expressions of GLUT4 vs CON group,GLUT4 [5]; TT 10 μg/mL,higher
same,protein expressions of GLUT4 vs CON group,GLUT4 [5]; TT 25 μg/mL,higher
same,membrane expression levels of GLUT4 in skeletal muscle vs STZ group,GLUT4 [6]; TT 10 mg/kg/day oral,greater
same,membrane expression levels of GLUT4 in skeletal muscle vs STZ group,GLUT4 [6]; TT 20 mg/kg/day oral,greater
same,membrane expression levels of GLUT4 in skeletal muscle vs STZ group,GLUT4 [6]; TT 40 mg/kg/day oral,greater
same,mRNA levels of SREBP1c in liver,SREBP1c; TT 10 mg/kg/day oral,decreased
same,mRNA levels of SREBP1c in liver,SREBP1c; TT 20 mg/kg/day oral,decreased
same,mRNA levels of SREBP1c in liver,SREBP1c; TT 40 mg/kg/day oral,decreased
same,mRNA levels of G6 Pase in liver,G6 Pase; TT 10 mg/kg/day oral,decreased
same,mRNA levels of G6 Pase in liver,G6 Pase; TT 20 mg/kg/day oral,decreased
same,mRNA levels of G6 Pase in liver,G6 Pase; TT 40 mg/kg/day oral,decreased
same,expression levels of PPARγ in adipose tissue,PPARγ; TT 10 mg/kg/day oral,decreased
same,expression levels of PPARγ in the liver,PPARγ; TT 10 mg/kg/day oral,decreased
same,expression levels of PPARγ in adipose tissue,PPARγ; TT 20 mg/kg/day oral,decreased
same,expression levels of PPARγ in the liver,PPARγ; TT 20 mg/kg/day oral,decreased
same,expression levels of PPARγ in adipose tissue,PPARγ; TT 40 mg/kg/day oral,decreased
same,expression levels of PPARγ in the liver,PPARγ; TT 40 mg/kg/day oral,decreased
same,ballooning of hepatocyte (liver histology),[2]; TT 10 mg/kg/day oral,no ballooning phenomenon
same,average area of adipocytes in epididymal WAT,[2]; TT 20 mg/kg/day oral,5379.9±187.2 μm^2
same,ballooning of hepatocyte (liver histology),[2]; TT 20 mg/kg/day oral,no ballooning phenomenon
same,average area of adipocytes in epididymal WAT,[2]; TT 40 mg/kg/day oral,4910.5±104.9 μm^2
same,ballooning of hepatocyte (liver histology),[2]; TT 40 mg/kg/day oral,no ballooning phenomenon
